Assay results as given in patent US20110039721A1, “METHOD FOR PREDICTION ABOUT CARCINOGENICITY OF SUBSTANCE IN RODENT” (Chemicals Evaluation and Research Institute, priority 2007, published 2011).

What was measured:
[1] = test system: mRNA expressed from the genes (A) to (D) in rat liver; test: Behavior of genes (mRNA expression level, oligo-DNA microarray) in rat liver after 28-day oral administration; assay type: in vivo
Method in brief: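 Oral gavage, once daily × 28 days; male F344 SPF rats, 5 wk, n=4/group; vehicle controls given equal solvent volume. Liver excised day 28, total RNA purified. Significance: ≥1.5× or ≤1/1.5 of vehicle, direction concordant with other carcinogens.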

liver = details: in vivo; cited from earlier work
rodent = details: in vivo; cited from earlier work
[2] = (C), Unigene Rn.120914, defined direction +, rat liver, oral once daily 28 days

## Oc1cccc2cccnc12 [TS007, 8-Hydroxyquinoline]
[1]; rat, in vivo
  Behavior of gene caused by administration of chemical substance, Gene No. 154: −
  Behavior of gene caused by administration of chemical substance, Gene No. 533: −
  Behavior of gene caused by administration of chemical substance, Gene No. 725: −
  Behavior of gene caused by administration of chemical substance, Gene No. 813: −
  Behavior of gene caused by administration of chemical substance, Gene No. 893: −
  Behavior of gene caused by administration of chemical substance, Gene No. 1119: −
  Behavior of gene caused by administration of chemical substance, Gene No. 1131: −
  Behavior of gene caused by administration of chemical substance, Gene No. 1163: −
  Behavior of gene caused by administration of chemical substance, Gene No. 1334: −
  Behavior of gene caused by administration of chemical substance, Gene No. 1494: −
  Behavior of gene caused by administration of chemical substance, Gene No. 1562: −
  Behavior of gene caused by administration of chemical substance, Gene No. 1741: −
  Behavior of gene caused by administration of chemical substance, Gene No. 1993: −
  Behavior of gene caused by administration of chemical substance, Gene No. 2026: −
  Behavior of gene caused by administration of chemical substance, Gene No. 2045: −
  Behavior of gene caused by administration of chemical substance, Gene No. 2203: −
  Behavior of gene caused by administration of chemical substance, Gene No. 2494: −
  Behavior of gene caused by administration of chemical substance, Gene No. 2546: −
  Behavior of gene caused by administration of chemical substance, Gene No. 3776: −
  Behavior of gene caused by administration of chemical substance, Gene No. 3929: −
  Behavior of gene caused by administration of chemical substance, Gene No. 4095: −
  Behavior of gene caused by administration of chemical substance, Gene No. 4218: −
  Behavior of gene caused by administration of chemical substance, Gene No. 4846: −
  Behavior of gene caused by administration of chemical substance, Gene No. 4973: −
  Behavior of gene caused by administration of chemical substance, Gene No. 5600: −
  Behavior of gene caused by administration of chemical substance, Gene No. 5634: −
  Behavior of gene caused by administration of chemical substance, Gene No. 5726: +
  Behavior of gene caused by administration of chemical substance, Gene No. 5878: −
  Behavior of gene caused by administration of chemical substance, Gene No. 6026: −
  Behavior of gene caused by administration of chemical substance, Gene No. 6182: −
  Behavior of gene caused by administration of chemical substance, Gene No. 6303: −
  Behavior of gene caused by administration of chemical substance, Gene No. 6620: −
  Behavior of gene caused by administration of chemical substance, Gene No. 6742: −
liver
  Liver carcinogenicity: Cr−
rodent
  Carcinogenicity: C−

## Cc1ccc(N)cc1N [TS004, 2,4-Diaminotoluene]
[1]; (A), Unigene Rn.144554, defined direction +, rat liver, oral once daily 28 days
  Behavior of gene caused by administration of chemical substance, Gene No. 4846: +
[1]; (A), Unigene Rn.167075, defined direction +, rat liver, oral once daily 28 days, significant = 1.5 times or more or 1/1.5 or less of control
  Behavior of gene caused by administration of chemical substance, Gene No. 4218: +
[1]; (A), Unigene Rn.167075, defined direction −, rat liver, oral once daily 28 days
  Behavior of gene caused by administration of chemical substance, Gene No. 2026: +
[1]; (A), Unigene Rn.5834, defined direction +, rat liver, oral once daily 28 days
  Behavior of gene caused by administration of chemical substance, Gene No. 6182: +
[1]; (A), Unigene Rn.9836, defined direction +, rat liver, oral once daily 28 days
  Behavior of gene caused by administration of chemical substance, Gene No. 5600: +
[1]; (B), Unigene Rn.1430, defined direction −, rat liver, oral once daily 28 days
  Behavior of gene caused by administration of chemical substance, Gene No. 1494: +
[1]; (B), Unigene Rn.19329, defined direction +, rat liver, oral once daily 28 days
  Behavior of gene caused by administration of chemical substance, Gene No. 2045: −
[1]; (B), Unigene Rn.21240, defined direction +, rat liver, oral once daily 28 days
  Behavior of gene caused by administration of chemical substance, Gene No. 2203: −
[1]; (C), Unigene Rn.106184, defined direction +, rat liver, oral once daily 28 days
  Behavior of gene caused by administration of chemical substance, Gene No. 533: −
[1]; (C), Unigene Rn.108075, defined direction −, rat liver, oral once daily 28 days
  Behavior of gene caused by administration of chemical substance, Gene No. 725: +
[1]; (C), Unigene Rn.11766, defined direction +, rat liver, oral once daily 28 days
  Behavior of gene caused by administration of chemical substance, Gene No. 1163: −
[1]; (C), Unigene Rn.118529, defined direction −, rat liver, oral once daily 28 days
  Behavior of gene caused by administration of chemical substance, Gene No. 4973: −
[1]; (C), Unigene Rn.119024, defined direction −, rat liver, oral once daily 28 days
  Behavior of gene caused by administration of chemical substance, Gene No. 4095: −
[1]; [2]
  Behavior of gene caused by administration of chemical substance, Gene No. 1334: −
  Behavior of gene caused by administration of chemical substance, Gene No. 6620: −
[1]; (C), Unigene Rn.123063, defined direction −, rat liver, oral once daily 28 days
  Behavior of gene caused by administration of chemical substance, Gene No. 6303: −
[1]; (C), Unigene Rn.143213, defined direction −, rat liver, oral once daily 28 days
  Behavior of gene caused by administration of chemical substance, Gene No. 5878: −
[1]; (C), Unigene Rn.144946, defined direction −, rat liver, oral once daily 28 days
  Behavior of gene caused by administration of chemical substance, Gene No. 1131: −
[1]; (C), Unigene Rn.14744, defined direction −, rat liver, oral once daily 28 days
  Behavior of gene caused by administration of chemical substance, Gene No. 1562: −
[1]; (C), Unigene Rn.1647, defined direction −, rat liver, oral once daily 28 days
  Behavior of gene caused by administration of chemical substance, Gene No. 1741: −
[1]; (C), Unigene Rn.164817, defined direction +, rat liver, oral once daily 28 days
  Behavior of gene caused by administration of chemical substance, Gene No. 893: −
[1]; (C), Unigene Rn.167685, defined direction −, rat liver, oral once daily 28 days
  Behavior of gene caused by administration of chemical substance, Gene No. 6026: −
[1]; (C), Unigene Rn.185941, defined direction −, rat liver, oral once daily 28 days
  Behavior of gene caused by administration of chemical substance, Gene No. 154: −
[1]; (C), Unigene Rn.18728, defined direction −, rat liver, oral once daily 28 days
  Behavior of gene caused by administration of chemical substance, Gene No. 1993: −
[1]; (C), Unigene Rn.201760, defined direction +, rat liver, oral once daily 28 days
  Behavior of gene caused by administration of chemical substance, Gene No. 813: −
[1]; (C), Unigene Rn.23969, defined direction +, rat liver, oral once daily 28 days
  Behavior of gene caused by administration of chemical substance, Gene No. 2494: −
[1]; (C), Unigene Rn.24561, defined direction −, rat liver, oral once daily 28 days
  Behavior of gene caused by administration of chemical substance, Gene No. 2546: −
[1]; (C), Unigene Rn.43232, defined direction −, rat liver, oral once daily 28 days
  Behavior of gene caused by administration of chemical substance, Gene No. 3776: −
[1]; (C), Unigene Rn.4620, defined direction +, rat liver, oral once daily 28 days
  Behavior of gene caused by administration of chemical substance, Gene No. 3929: −
[1]; (C), Unigene Rn.9757, defined direction +, rat liver, oral once daily 28 days
  Behavior of gene caused by administration of chemical substance, Gene No. 1119: −
[1]; (C), Unigene Rn.9779, defined direction +, rat liver, oral once daily 28 days
  Behavior of gene caused by administration of chemical substance, Gene No. 6742: −
[1]; (C), Unigene Rn.9862, defined direction −, rat liver, oral once daily 28 days
  Behavior of gene caused by administration of chemical substance, Gene No. 5634: −
[1]; (D), Unigene Rn.9939, defined direction −, rat liver, oral once daily 28 days
  Behavior of gene caused by administration of chemical substance, Gene No. 5726: −
liver
  Liver carcinogenicity: Cr+
rodent
  Carcinogenicity: C+
